Experimental data taken from patent US9113629B2, “4-amino-6-(4-substituted-phenyl)-picolinates and 6-amino-2-(4-substituted-phenyl)-pyrimidine-4-carboxylates and their use as herbicides” (DOW AGROSCIENCES LLC, priority 2013, dated 2015).
Like-named read-outs stand apart in the source and are kept apart here.

What was measured:
[1] = tested on: Key Broadleaf Weed and Crop Species; assay: Post-emergent Test II herbicidal activity (Table 5); format: in vivo; settings: post-emergence, 336 h, post-emergent, 14 days after application; for pest or weed control at 70 g/ha: 70 g ai/ha; for pest or weed control at 140 g/ha: 140 g ai/ha
Outline: (§1)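 Greenhouse post-emergent assay: seedlings (first/second true leaf) in Metro-Mix 360 were sprayed at 187 L/ha at a top rate plus twofold dilutions down to 1/16×; solvent-blank controls were included. Percent visual injury was read at 14 d.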

[2] = tested on: Key Grass and Sedge Weeds as well as Grass Crops; assay: Post-emergent Test II herbicidal activity (Table 6); format: in vivo; settings: post-emergence, 336 h; for pest or weed control at 70 g/ha: application rate 70 g ai/ha; for pest or weed control at 140 g/ha: application rate 140 g ai/ha
Outline: as §1

[3] = ABUTH: velvetleaf (Abutilon theophrasti), read-out: Visual Growth Reduction (%) 14 Days After Application ABUTH
[4] = AMARE: redroot pigweed (Amaranthus retroflexus), read-out: Visual Growth Reduction (%) 14 Days After Application AMARE
[5] = BRSNN: oilseed-rape, canola (Brassica napus), read-out: Visual Growth Reduction (%) 14 Days After Application BRSNN
[6] = CHEAL: lambsquarters (Chenopodium album), read-out: Visual Growth Reduction (%) 14 Days After Application CHEAL
[7] = EPHHL: wild poinsettia (Euphorbia heterophylla), read-out: Visual Growth Reduction (%) 14 Days After Application EPHHL
[8] = HELAN: sunflower (Helianthus annuus), read-out: Visual Growth Reduction (%) 14 Days After Application HELAN
[9] = VIOTR: wild pansy (Viola tricolor), read-out: Visual Growth Reduction (%) 14 Days After Application VIOTR
[10] = Triticum aestivum, TRZSS (wheat), read-out: Visual Growth Reduction (%) 14 Days After Application, TRZSS
[11] = CYPES: yellow nutsedge (Cyperus esculentus), read-out: Visual Growth Reduction (%) 14 Days After Application, CYPES
[12] = DIGSA: crabgrass (Digitaria sanguinalis), read-out: Visual Growth Reduction (%) 14 Days After Application, DIGSA
[13] = ECHCG: barnyardgrass (Echinochloa crus-galli), read-out: Visual Growth Reduction (%) 14 Days After Application, ECHCG
[14] = ORYSA: rice (Oryza sativa), read-out: Visual Growth Reduction (%) 14 Days After Application, ORYSA
[15] = SETFA: giant foxtail (Setaria faberi), read-out: Visual Growth Reduction (%) 14 Days After Application, SETFA
[16] = SORVU: grain sorghum (Sorghum vulgare), read-out: Visual Growth Reduction (%) 14 Days After Application, SORVU
[17] = ZEAMX: maize, corn (Zea mays), read-out: Visual Growth Reduction (%) 14 Days After Application, ZEAMX

Structure (SMILES) | pest or weed control at 70 g/ha [1, 3] [%] | pest or weed control at 140 g/ha [1, 3] [%] | pest or weed control at 70 g/ha [1, 4] [%] | pest or weed control at 140 g/ha [1, 4] [%] | pest or weed control at 70 g/ha [1, 5] [%] | pest or weed control at 140 g/ha [1, 5] [%] | pest or weed control at 70 g/ha [1, 6] [%] | pest or weed control at 140 g/ha [1, 6] [%] | pest or weed control at 70 g/ha [1, 7] [%] | pest or weed control at 140 g/ha [1, 7] [%] | pest or weed control at 70 g/ha [1, 8] [%] | pest or weed control at 140 g/ha [1, 8] [%] | pest or weed control at 70 g/ha [1, 9] [%] | pest or weed control at 140 g/ha [1, 9] [%] | pest or weed control at 70 g/ha [2, 10] [%] | pest or weed control at 140 g/ha [2, 10] [%] | pest or weed control at 70 g/ha [2, 11] [%] | pest or weed control at 140 g/ha [2, 11] [%] | pest or weed control at 70 g/ha [2, 12] [%] | pest or weed control at 140 g/ha [2, 12] [%] | also measured
COC(=O)c1nc(-c2ccc(I)cc2F)cc(N)c1Cl [Compound 159] | 95 to 100 | 95 to 100 | 95 to 100 | 95 to 100 | 85 to 94 | 85 to 94 | 95 to 100 | 95 to 100 | 95 to 100 | 95 to 100 | 75 to 84 | 95 to 100 | 0 to 29 | 45 to 59 | 60 to 74 | 60 to 74 | 95 to 100 | 95 to 100 | 85 to 94 | 85 to 94 | pest or weed control at 70 g/ha [2, 13]: 85 to 94%; pest or weed control at 140 g/ha [2, 13]: 95 to 100%; pest or weed control at 70 g/ha [2, 14]: 0 to 29%; pest or weed control at 140 g/ha [2, 14]: 0 to 29%; pest or weed control at 70 g/ha [2, 15]: 75 to 84%; pest or weed control at 140 g/ha [2, 15]: 95 to 100%; pest or weed control at 70 g/ha [2, 16]: 95 to 100%; pest or weed control at 140 g/ha [2, 16]: 95 to 100%; pest or weed control at 70 g/ha [2, 17]: 60 to 74%; pest or weed control at 140 g/ha [2, 17]: 75 to 84%
Nc1c(F)c(-c2cc(F)c(I)cc2F)nc(C(=O)O)c1Cl [Compound 69] | 85 to 94 | 85 to 94 | 95 to 100 | 95 to 100 | 95 to 100 | 95 to 100 | 95 to 100 | 95 to 100 | 95 to 100 | 95 to 100 | 95 to 100 | 95 to 100 | 95 to 100 | 95 to 100 | 60 to 74 | 85 to 94 | 45 to 59 | 95 to 100 | 95 to 100 | 95 to 100 | pest or weed control at 70 g/ha [2, 13]: 95 to 100%; pest or weed control at 140 g/ha [2, 13]: 95 to 100%; pest or weed control at 70 g/ha [2, 14]: 0 to 29%; pest or weed control at 140 g/ha [2, 14]: 0 to 29%; pest or weed control at 70 g/ha [2, 15]: 95 to 100%; pest or weed control at 140 g/ha [2, 15]: 95 to 100%; pest or weed control at 70 g/ha [2, 16]: 95 to 100%; pest or weed control at 140 g/ha [2, 16]: 95 to 100%; pest or weed control at 70 g/ha [2, 17]: 75 to 84%; pest or weed control at 140 g/ha [2, 17]: 75 to 84%
Nc1c(Cl)c(C(=O)O)nc(-c2ccc(Br)cc2)c1Cl [Compound 125] | 95 to 100 | 95 to 100 | 95 to 100 | 95 to 100 | 95 to 100 | 95 to 100 | 95 to 100 | 95 to 100 | 30 to 44 | 45 to 59 | 95 to 100 | 95 to 100 | 0 to 29 | 0 to 29 | 60 to 74 | 60 to 74 | 95 to 100 | 95 to 100 | 60 to 74 | 60 to 74 | pest or weed control at 70 g/ha [2, 14]: 0 to 29%; pest or weed control at 140 g/ha [2, 14]: 0 to 29%; pest or weed control at 70 g/ha [2, 15]: 85 to 94%; pest or weed control at 140 g/ha [2, 15]: 95 to 100%; pest or weed control at 70 g/ha [2, 16]: 60 to 74%; pest or weed control at 140 g/ha [2, 16]: 85 to 94%; pest or weed control at 70 g/ha [2, 17]: 60 to 74%; pest or weed control at 140 g/ha [2, 17]: 60 to 74%
COC(=O)c1nc(-c2ccc(Br)c(F)c2)c(C)c(N)c1Cl [Compound 112, Methyl 4-amino-6-(4-bromo-3-fluorophenyl)-3-chloro-5-methylpicolinate] | 95 to 100 | 95 to 100 | 95 to 100 | 95 to 100 | 85 to 94 | 85 to 94 | 85 to 94 | 85 to 94 | 0 to 29 | 0 to 29 | 95 to 100 | 95 to 100 | 0 to 29 | 0 to 29 | 45 to 59 | 60 to 74 | 95 to 100 | 95 to 100 | 60 to 74 | 60 to 74 | pest or weed control at 70 g/ha [2, 13]: 60 to 74%; pest or weed control at 140 g/ha [2, 13]: 60 to 74%; pest or weed control at 70 g/ha [2, 14]: 0 to 29%; pest or weed control at 140 g/ha [2, 14]: 0 to 29%; pest or weed control at 70 g/ha [2, 15]: 85 to 94%; pest or weed control at 140 g/ha [2, 15]: 95 to 100%; pest or weed control at 70 g/ha [2, 16]: 85 to 94%; pest or weed control at 140 g/ha [2, 16]: 85 to 94%; pest or weed control at 70 g/ha [2, 17]: 60 to 74%; pest or weed control at 140 g/ha [2, 17]: 60 to 74%
COC(=O)c1nc(-c2ccc(Br)c(F)c2)c(Cl)c(N)c1Cl [Compound 73, Methyl 4-amino-6-(4-bromo-3-fluorophenyl)-3,5-dichloropicolinate] | 85 to 94 | 85 to 94 | 95 to 100 | 95 to 100 | 95 to 100 | 95 to 100 | 85 to 94 | 85 to 94 | 45 to 59 | 60 to 74 | 95 to 100 | 95 to 100 | 45 to 59 | 45 to 59 | 60 to 74 | 60 to 74 | 95 to 100 | 95 to 100 | 0 to 29 | 45 to 59 | pest or weed control at 70 g/ha [2, 13]: 0 to 29%; pest or weed control at 140 g/ha [2, 13]: 60 to 74%; pest or weed control at 70 g/ha [2, 14]: 0 to 29%; pest or weed control at 140 g/ha [2, 14]: 0 to 29%; pest or weed control at 70 g/ha [2, 15]: 60 to 74%; pest or weed control at 140 g/ha [2, 15]: 60 to 74%; pest or weed control at 70 g/ha [2, 16]: 85 to 94%; pest or weed control at 140 g/ha [2, 16]: 85 to 94%; pest or weed control at 70 g/ha [2, 17]: 60 to 74%; pest or weed control at 140 g/ha [2, 17]: 60 to 74%
